Test results as given in PMC11277489, “Novel Piperazine Derivatives of Vindoline as Anticancer Agents” (International Journal of Molecular Sciences, 2024).
Like-named read-outs stand apart in the source and are kept apart here.

How the values were obtained:
HeLa cell line = system: HeLa cell line; parameters: method as in PMID 32102414; conditions: cited from earlier work
[1] = CellTiter-Glo Luminescent Cell Viability Assay on non-tumor CHO cells; type: cell-based, Chinese hamster; conditions: Chinese hamster, CHO cells, 48 h, 10^−5 M, mean ± SD, n = 9
Method: (§1) Three promising conjugates (20, 23, 25) were selected for testing on the non-tumor CHO cell line in the CellTiter-Glo Luminescent Cell Viability Assay (Promega Corporation, Madison, WI, USA) to reveal their selectivity for cancer cells.
(§2) Compounds 20, 23, and 25 were dissolved in DMSO in 10 mM stock solutions and stored frozen until use. CHO cells were cultured in complete Dulbecco’s Modified Eagle’s Medium (DMEM, low glucose (1 g/L)) supplemented with 10% fetal bovine serum, 1% Gibco GlutaMAX-I (100×) solution, 1% Gibco MEM non-essential amino acid solution (100×), and 0.1% penicillin–streptomycin mixture. Cells were grown in T-25 size cell culture flasks under standard cell culture conditions (37 °C, 5% CO2) and passaged at 70–80% confluency. The assay was performed according to the manufacturer’s protocol, as described previously. Briefly, CHO cells were seeded to opaque 96-well culture plates at a density of 5000 cells/100 µL complete DMEM/well. The side rows and columns of the plate were filled with sterile phosphate-buffer saline to avoid an edge effect. Following overnight incubation (37 °C, 5% CO2), the culture medium was aspirated from the cells and replaced with increasing concentrations of drug solutions (10^−5, 10^−6, and 10^−7 M) diluted from the stock solution in sterile complete DMEM (100 µL/well). Untreated cells served as a control, and complete DMEM served as a luminescent background control. Drug-treated cells were incubated for 48 h (37 °C, 5% CO2), and then equilibrated to room temperature in 30 min. At the end of the incubation period, 100 µL of room temperature CellTiter-Glo reagent was added to each well, and the plates were placed on an orbital shaker for 2 min and incubated for additional 10 min at room temperature without shaking. The luminescent signal was measured using an EnSpire AlphaLisa microplate reader (Perkin Elmer, Inc., Waltham, MA, USA). The normalized luminescent values of the treated cells were compared to those of the untreated control. The statistical analysis and calculation of IC50 values were performed in GraphPad Prism 8.0.1 (GraphPad, La Jolla, CA, USA). Estimated IC50 values were calculated by using non-linear regression by fitting a sigmoidal dose–response curve to the data points.

[2] = system: non-tumor Chinese hamster ovary (CHO) cells; assay: as above; type: cell-based; conditions: for effect on CHO cell viability (in words) / IC50: 48 h; for effect on CHO cell viability (in words): 10^−7 and 10^−6 M; for IC50: read-out: IC50 (estimated)
Method: as §1, §2

[3] = CHO cells (non-tumor Chinese hamster ovary cell line)
[4] = Cricetulus griseus, CHO cells, roughly estimated from three concentrations

Row | Structure (SMILES) | IC50 (HeLa cell line) [µM] | viability at 48 h [1, 3] [%] | effect on CHO cell viability (in words) ([2]; CHO cells) | IC50 [2, 4] [µM] | viability at 48 h [1] [%] | IC50 ([2]; Cricetulus griseus, CHO) [µM] | EC50 ([2]; Cricetulus griseus, CHO, non-tumor cells, read-out: half-maximal effective concentration (EC50)) [µM]
1 | CCC12C=CCN3CCC4(c5ccc(OC)cc5N(C)C4C(O)(C(=O)OC)C1OC(=O)CCCN1CCN(C)CC1)C32 (centres unmarked) [Compound 3] | 9.36 |  |  |  |  |  | 
2 | CCC12C=CCN3CCC4(c5cc(NC(=O)CN6CCN(C(c7ccc(F)cc7)c7ccc(F)cc7)CC6)c(OC)cc5N(C)C4C(O)(C(=O)OC)C1OC(C)=O)C32 (centres unmarked) [Compound 20] |  | 1.25 ± 0.77 | did not affect CHO cell viability | ~2.54 |  |  | 
3 | CC[C@]12C=CCN3CC[C@@]4(c5ccc(OC)cc5N(C)[C@H]4[C@@](O)(C(=O)OC)[C@@H]1OC(=O)CCCN1CCN(C(c4ccc(F)cc4)c4ccc(F)cc4)CC1)[C@@H]32 [Compound 25] |  |  | did not affect CHO cell viability |  | 33.5 ± 19.6 | ~6.64 | 
4 | CC[C@]12C=CCN3CC[C@@]4(c5ccc(OC)cc5N(C)[C@H]4[C@@](O)(C(=O)OC)[C@@H]1OC(=O)CCCN1CCN(Cc4ccc(C(F)(F)F)cc4)CC1)[C@@H]32 [Compound 23] |  | 52.8 ± 7.25 | did not affect CHO cell viability | ~10.8 |  |  | 10.8
